Measured values as given in patent US20170209579A1, “NON-INVASIVE RADIOFREQUENCY FIELD TREATMENT FOR CANCER THERAPY” (Baylor College of Medicine, priority 2014, published 2017).

Test system: HepG2 xenograft
Assay: Orthotopic HepG2 xenografts in CB17 SCID mice, tumor mass
Format: in vivo, mouse
Excerpt: For in vivo studies, an implanted mouse model of human HCC was generated in CB17SCID mice (Taconic, Hudson, N.Y.). Female mice between 4 and 5 weeks in age were purchased and acclimatized in M.D. Anderson Animal facilities for up to one week. All animals were handled, housed and studied in accordance with the Institutional Animal Care and Use Committee. Tumors were generated after orthotopic implantation of approximately 1.6 million cells into the liver of each mouse (10 mice per group). Bioluminescence imaging indicated tumor development in the majority of mice three weeks after implantation. Euthanasia was performed by carbon dioxide inhalation followed by cervical spine dislocation.
Cultured luciferase and GFP-expression human HCC cell lines (Hep3B and HepG2) were harvested from an exponentially growing culture and washed with PBS. The cells were re-suspended in 3 ml PBS and final centrifugation was performed at 1000 RPM for 5 minutes. Supernatant was discarded and the cell pellet was used for implantation. The concentration of cells achieved using this protocol was 160,000 cells per micro liter. The cells were kept on ice and animals were injected within 3-4 hours after final centrifugation.
Before surgery, hair was removed from the ventral surface of the abdomen using clippers. Mice were anesthetized using 2.5% isoflurane. The surgical field was sterilized with 70% (v/v) ethanol in water. Mice were placed supine on a heating pad and the surgical site was sterilized using povidone iodine swab sticks. After confirming induction of anesthesia, an approximately 1-cm transverse incision was made in the skin of the upper abdomen slightly left of the midline. Deeper layers of muscle and peritoneum were incised and hemostasis was achieved using silver nitrate chemical cautery sticks. By applying gentle pressure on the lower abdomen and lower chest, the left lobe of the liver was eviscerated. […]
Mice with confirmed tumors on bioluminescence were then randomized in groups of 10. […] Sample size was calculated using Stata SE 12.1 for Mac (College Station, Tex.). […]

Nc1ccn([C@@H]2O[C@H](CO)[C@@H](O)C2(F)F)c(=O)n1 [gemcitabine, 2′,2′-difluoro 2′-deoxycytidine]
Mean tumor mass [±SD] (RF then gemcitabine, weekly for three weeks): 107 ± 64 mg
Mean tumor mass [±SD] (gemcitabine alone, weekly treatments for three weeks): 170 ± 51 mg
Mean tumor mass [±SD] (gemcitabine then RF, weekly for three weeks): 74 ± 45 mg
